The record followed here is patent US6579855B1, “Adenovirus-mediated gene therapy” (priority 1998, dated 2003).

This data set is described as follows: Clinical safety of gene transfer and GCV treatment (adverse effects, routine laboratory measurements). The class given is in vivo, human. The note with it: GCV 5 mg/kg/d intravenously, 14 days; only one patient, without symptoms. How it is done: All patients underwent craniotomy and tumour resection. The resection was as radical as possible under the microscope. The diagnosis of malignant glioma was confirmed by frozen sections at the time of the operation. After tumour resection, HSVtk retrovirus packaging cells (10^9 cells/10 ml) or adenoviruses (3×10^10 pfu/10 ml) were injected into the wall of the tumour cavity in 0.1-0.3 ml quantities, 10 mm deep, with 30-70 injections/patient. GCV treatment (5 mg/kg/d) was delivered intravenously through the subclavian vein twice a day for 14 days. The medication started 14 days or 5 days after the tumour resection and gene transfer in retrovirus or adenovirus patients, respectively. β-galactosidase gene was transferred to seven control group patients via a catheter which was stereotactically inserted into the tumour. The catheter was left in place until the tumour was resected in craniotomy. […]
Blood and urine samples were analyzed using routine methods before gene transfer, on the first postoperative day and weekly during hospitalization except for leucocyte differential count which was measured every second day during GCV medication. Anti-virus antibodies were measured before and two weeks after the gene transfer. […]

In the case of `Nc1nc(O)c2ncn(COC(CO)CO)c2n1` [GCV, ganciclovir], the “leukopenia during GCV treatment” value was “mild and reversible leukopenia”.
